# Test results published in ChEMBL document CHEMBL1201862, “PubChem BioAssay data set” (2004).
# Active and inactive are the calls of the source.
# How the values were obtained:
# [1] = human group III sPLA2 inhibitors, dose response, biochemical, QFRET, IC50 (AID 743457);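 note: green fluorescence rise as the enzyme cleaves BODIPY PC-A2 in liposomes; potency for inhibition of the enzyme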
# [2] = target: T1, Short transient receptor potential channel 4 (Mus musculus, UniProt Q9QUQ5); assay: mouse TRPC4 channel activators, dose response, cell-based, HEK293 TRPC4/mu-opioid, Fluo-4 calcium (AID 434937); assay type: functional
# T1 sequence (Q9QUQ5 whole entry): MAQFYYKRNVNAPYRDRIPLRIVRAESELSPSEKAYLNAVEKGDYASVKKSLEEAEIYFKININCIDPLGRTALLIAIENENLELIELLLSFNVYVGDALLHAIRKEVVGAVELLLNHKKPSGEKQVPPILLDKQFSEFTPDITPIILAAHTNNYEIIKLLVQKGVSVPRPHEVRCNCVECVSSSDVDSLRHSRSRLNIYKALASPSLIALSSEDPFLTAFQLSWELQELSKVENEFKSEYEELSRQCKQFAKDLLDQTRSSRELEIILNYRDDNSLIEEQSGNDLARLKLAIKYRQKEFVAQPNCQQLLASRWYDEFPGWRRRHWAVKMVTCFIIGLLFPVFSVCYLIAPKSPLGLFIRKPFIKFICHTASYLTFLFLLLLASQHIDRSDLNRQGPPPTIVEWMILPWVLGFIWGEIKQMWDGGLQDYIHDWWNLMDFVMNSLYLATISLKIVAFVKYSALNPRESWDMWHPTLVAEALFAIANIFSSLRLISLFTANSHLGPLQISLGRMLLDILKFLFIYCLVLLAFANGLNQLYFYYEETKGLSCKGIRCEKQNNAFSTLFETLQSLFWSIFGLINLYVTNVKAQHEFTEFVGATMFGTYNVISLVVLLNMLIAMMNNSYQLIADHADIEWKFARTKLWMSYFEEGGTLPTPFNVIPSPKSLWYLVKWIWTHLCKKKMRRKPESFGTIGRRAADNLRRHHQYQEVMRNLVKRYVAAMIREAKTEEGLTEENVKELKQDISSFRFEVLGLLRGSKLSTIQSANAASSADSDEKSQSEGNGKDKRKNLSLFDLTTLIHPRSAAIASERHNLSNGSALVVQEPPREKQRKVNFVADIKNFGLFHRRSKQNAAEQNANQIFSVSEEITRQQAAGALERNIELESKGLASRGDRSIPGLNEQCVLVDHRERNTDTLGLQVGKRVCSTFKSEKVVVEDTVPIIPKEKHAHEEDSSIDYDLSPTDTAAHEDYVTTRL
# [3] = HEK293 cell cytotoxicity, dose response, cytotoxicity control, HEK293T, ATP luminescence, dry powder (AID 652119); assay type: functional, cell-based
# [4] = target: Protein disulfide-isomerase (Homo sapiens, UniProt P07237); assay: PDI inhibitors, insulin turbidity readout, confirmation, biochemical, dry powder samples, set 2 (AID 652146)
# Sequence of Protein disulfide-isomerase (P07237 whole entry): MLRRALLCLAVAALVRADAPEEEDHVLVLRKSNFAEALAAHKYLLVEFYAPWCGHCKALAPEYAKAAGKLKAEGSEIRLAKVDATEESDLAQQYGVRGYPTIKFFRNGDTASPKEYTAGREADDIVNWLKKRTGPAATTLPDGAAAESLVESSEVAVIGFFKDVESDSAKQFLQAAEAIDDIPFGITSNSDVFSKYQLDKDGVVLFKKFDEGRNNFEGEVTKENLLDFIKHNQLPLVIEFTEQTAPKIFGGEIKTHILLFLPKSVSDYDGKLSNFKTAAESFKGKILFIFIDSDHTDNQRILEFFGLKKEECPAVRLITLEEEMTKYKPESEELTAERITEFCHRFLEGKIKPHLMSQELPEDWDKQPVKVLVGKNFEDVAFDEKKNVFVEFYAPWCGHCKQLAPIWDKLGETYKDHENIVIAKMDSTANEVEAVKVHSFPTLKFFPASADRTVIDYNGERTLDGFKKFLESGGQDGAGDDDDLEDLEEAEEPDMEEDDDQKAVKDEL
# [5] = target: T2, High affinity choline transporter 1 (Homo sapiens, UniProt Q9GZV3); assay: CHT choline uptake inhibitors, dose response, cell-based, HEK-293 hCHT, [3H]-choline uptake (AID 652177); assay type: functional
# T2 sequence (Q9GZV3 whole entry): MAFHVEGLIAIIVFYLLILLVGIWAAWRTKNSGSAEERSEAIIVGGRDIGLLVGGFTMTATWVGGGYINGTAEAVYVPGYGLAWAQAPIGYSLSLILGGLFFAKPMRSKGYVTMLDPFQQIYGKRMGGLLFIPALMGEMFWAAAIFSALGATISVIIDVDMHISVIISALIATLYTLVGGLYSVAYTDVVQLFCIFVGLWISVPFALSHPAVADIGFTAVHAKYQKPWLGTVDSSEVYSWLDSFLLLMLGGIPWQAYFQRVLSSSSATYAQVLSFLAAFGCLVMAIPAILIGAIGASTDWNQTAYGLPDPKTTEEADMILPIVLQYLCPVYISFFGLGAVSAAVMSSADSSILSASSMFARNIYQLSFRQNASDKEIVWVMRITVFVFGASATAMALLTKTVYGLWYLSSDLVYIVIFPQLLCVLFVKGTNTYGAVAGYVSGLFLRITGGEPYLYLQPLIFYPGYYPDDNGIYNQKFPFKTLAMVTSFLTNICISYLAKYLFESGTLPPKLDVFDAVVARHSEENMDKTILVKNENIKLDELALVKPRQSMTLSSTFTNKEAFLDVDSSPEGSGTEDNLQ
# [6] = target: Potassium channel subfamily K member 9 (Homo sapiens, UniProt Q9NPC2); assay: TASK3 (KCNK9) channel inhibitors, thallium flux, SAR follow-up, selectivity assay for TASK1 inhibitor project, cell-based, FluxOR thallium flux, concentration-response (AID 652211); assay type: functional;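 note: potency is for inhibitors of the channel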
# Sequence of Potassium channel subfamily K member 9 (Q9NPC2 whole entry): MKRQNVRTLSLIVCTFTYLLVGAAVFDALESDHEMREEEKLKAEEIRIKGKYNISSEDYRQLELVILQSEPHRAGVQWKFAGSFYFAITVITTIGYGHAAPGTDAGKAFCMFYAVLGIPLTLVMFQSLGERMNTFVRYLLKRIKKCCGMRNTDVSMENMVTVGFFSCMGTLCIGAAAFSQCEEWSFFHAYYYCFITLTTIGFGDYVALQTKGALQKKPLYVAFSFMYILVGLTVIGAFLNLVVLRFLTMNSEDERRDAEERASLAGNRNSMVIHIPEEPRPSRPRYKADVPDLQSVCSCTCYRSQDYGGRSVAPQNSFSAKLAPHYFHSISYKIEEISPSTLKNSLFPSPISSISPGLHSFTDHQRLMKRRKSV
# [7] = target: Potassium channel subfamily K member 3 (Homo sapiens, UniProt O14649); assay: TASK1 (KCNK3) potassium channel inhibitors, SAR follow-up, CHO cells, FluxOR thallium flux (AID 652212); assay type: functional
# Sequence of Potassium channel subfamily K member 3 (O14649 whole entry): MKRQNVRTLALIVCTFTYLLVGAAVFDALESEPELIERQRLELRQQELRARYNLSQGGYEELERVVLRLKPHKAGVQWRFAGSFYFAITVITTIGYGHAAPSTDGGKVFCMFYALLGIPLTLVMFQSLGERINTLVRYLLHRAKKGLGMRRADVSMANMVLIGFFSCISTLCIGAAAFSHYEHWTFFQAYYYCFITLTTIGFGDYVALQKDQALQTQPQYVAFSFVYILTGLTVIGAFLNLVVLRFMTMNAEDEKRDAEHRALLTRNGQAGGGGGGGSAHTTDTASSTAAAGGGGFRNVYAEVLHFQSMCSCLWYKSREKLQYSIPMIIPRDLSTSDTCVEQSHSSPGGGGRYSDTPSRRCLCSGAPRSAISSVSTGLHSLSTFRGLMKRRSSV
# [8] = target: Voltage-gated inwardly rectifying potassium channel KCNH2 (Homo sapiens, UniProt Q12809); assay: hERG channel inhibition in selectivity testing, SAR follow-up, selectivity assay for TASK1 inhibitor project, FluxOR thallium flux, concentration-response, CHO cells (AID 652194); assay type: functional, cell-based
# Sequence of Voltage-gated inwardly rectifying potassium channel KCNH2 (Q12809 whole entry): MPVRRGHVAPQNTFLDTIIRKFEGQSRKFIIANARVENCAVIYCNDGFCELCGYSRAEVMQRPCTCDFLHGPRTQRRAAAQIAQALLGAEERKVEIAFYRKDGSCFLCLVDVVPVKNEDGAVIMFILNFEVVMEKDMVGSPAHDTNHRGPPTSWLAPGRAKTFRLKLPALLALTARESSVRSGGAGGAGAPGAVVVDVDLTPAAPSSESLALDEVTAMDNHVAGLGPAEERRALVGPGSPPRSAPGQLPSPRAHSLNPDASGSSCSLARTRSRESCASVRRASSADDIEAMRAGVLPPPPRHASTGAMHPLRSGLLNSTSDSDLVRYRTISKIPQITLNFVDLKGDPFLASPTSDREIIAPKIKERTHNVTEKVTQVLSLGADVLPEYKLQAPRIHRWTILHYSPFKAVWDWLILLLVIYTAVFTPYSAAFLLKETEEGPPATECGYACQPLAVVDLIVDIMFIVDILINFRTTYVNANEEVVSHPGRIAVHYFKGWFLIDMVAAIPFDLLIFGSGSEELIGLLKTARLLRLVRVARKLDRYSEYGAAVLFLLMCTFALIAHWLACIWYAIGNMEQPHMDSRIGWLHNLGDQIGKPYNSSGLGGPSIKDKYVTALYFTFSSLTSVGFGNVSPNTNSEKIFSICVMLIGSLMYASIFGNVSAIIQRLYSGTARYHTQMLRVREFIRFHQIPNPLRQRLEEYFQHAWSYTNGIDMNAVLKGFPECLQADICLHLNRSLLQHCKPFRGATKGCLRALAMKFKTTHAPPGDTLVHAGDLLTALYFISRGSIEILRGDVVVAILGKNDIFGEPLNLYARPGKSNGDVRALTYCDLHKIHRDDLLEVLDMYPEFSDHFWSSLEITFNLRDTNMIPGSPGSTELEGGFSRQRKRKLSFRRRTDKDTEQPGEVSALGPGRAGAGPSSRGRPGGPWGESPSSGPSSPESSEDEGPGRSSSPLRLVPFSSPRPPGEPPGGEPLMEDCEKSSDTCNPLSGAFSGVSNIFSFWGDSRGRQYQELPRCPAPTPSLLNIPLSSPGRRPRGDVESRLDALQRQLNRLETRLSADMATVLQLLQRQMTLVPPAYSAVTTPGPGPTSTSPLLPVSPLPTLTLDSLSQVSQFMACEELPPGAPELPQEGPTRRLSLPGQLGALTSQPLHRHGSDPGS
# [9] = cytotoxicity in HEK293 cells, dose response, cytotoxicity control, cell-based, cherry-picked samples (AID 1053185); assay type: functional
# [10] = cytotoxicity in HepG2 cells, dose response, cytotoxicity control, cell-based, cherry-picked samples (AID 1053183); assay type: functional
# [11] = cytotoxicity in A549 cells, dose response, cytotoxicity control, cell-based, cherry-picked samples (AID 1053184); assay type: functional
# [12] = HepG2 cell cytotoxicity, dose response, cytotoxicity control, plate reader, cherry-pick, antagonist series (AID 743416); assay type: functional, cell-based
# [13] = LGR2 antagonists, dose response, cell-based, HEK293, CRE-luciferase reporter, cherry pick, set 2 (AID 743343); assay type: functional;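 note: transfected cells were stimulated with diluted bursicon conditioned medium after compound addition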
# [14] = MC4R antagonists, dose response, counter-screen for LGR2 antagonist project, cell-based, plate reader, cherry pick (AID 743444); assay type: functional;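 note: transfected HEK 293 cells stimulated with alpha-MSH peptide; potency of inhibitors of the alpha-MSH evoked signal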
# Paired box protein Pax-8 = Paired box protein Pax-8 (Homo sapiens, UniProt Q06710); assay: inhibitors of PAX8-driven TPO luciferase reporter, dose response, RMG-I cells, cherry-pick (AID 687027); assay type: functional, cell-based;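 note: luciferase reporter driven by Pax8 target thyroperoxidase promoter measured by SteadyGlo luminescence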
# Sequence of Paired box protein Pax-8 (Q06710 whole entry): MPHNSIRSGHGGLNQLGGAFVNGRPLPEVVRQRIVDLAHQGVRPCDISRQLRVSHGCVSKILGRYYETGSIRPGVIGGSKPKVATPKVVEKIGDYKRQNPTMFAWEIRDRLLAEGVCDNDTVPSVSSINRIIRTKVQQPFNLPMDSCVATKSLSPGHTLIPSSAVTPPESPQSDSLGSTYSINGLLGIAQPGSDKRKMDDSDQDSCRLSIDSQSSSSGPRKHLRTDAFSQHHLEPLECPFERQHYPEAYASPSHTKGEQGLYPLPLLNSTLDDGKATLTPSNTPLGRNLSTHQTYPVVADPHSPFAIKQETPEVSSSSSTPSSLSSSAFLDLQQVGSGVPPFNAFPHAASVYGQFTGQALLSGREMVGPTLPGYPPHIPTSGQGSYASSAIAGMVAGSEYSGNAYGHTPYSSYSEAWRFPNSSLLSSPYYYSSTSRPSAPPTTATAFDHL
# [15] = HEK293 cell cytotoxicity, dose response, cytotoxicity control, plate reader, cherry-picked samples (AID 743446); assay type: functional, cell-based
# [16] = cytotoxicity in OVCAR8 ovarian cancer cells, dose response, PAX8 project, cell-based, plate reader, dry powder samples (AID 743197); assay type: functional; details: OVCAR-8
# [17] = IGROV1 ovarian cancer cell cytotoxicity, dose response, PAX8 inhibitor project, plate reader, dry powder samples (AID 743043); assay type: functional, cell-based; details: IGROV-1
# [18] = NIH:OVCAR-3 ovarian cancer cell cytotoxicity, dose response, PAX8 inhibitor project, plate reader, dry powder samples (AID 743044); assay type: functional, cell-based
# [19] = A549 cell cytotoxicity, dose response, cytotoxicity control, plate reader, cherry-pick, antagonist series (AID 743412); assay type: functional, cell-based
# [20] = A Cell-Based Confirmatory Screen for Compounds that Inhibit VEEV, TC-83 (8).; assay type: functional
# [21] = target: T3, Oxysterols receptor LXR-beta (Homo sapiens, UniProt P55055); assay type: functional, cell-based;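 note: agonist activity at LXR measured by a cell-based luminescence readout across a dose range, run as a counterscreen for daf-12 agonists; HEK293 cells with Gal4-LXR fusion and GAL4-driven luciferase reporter; potency for activation of Gal4-LXR reporter so compounds are agonists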
# T3 sequence (P55055 whole entry): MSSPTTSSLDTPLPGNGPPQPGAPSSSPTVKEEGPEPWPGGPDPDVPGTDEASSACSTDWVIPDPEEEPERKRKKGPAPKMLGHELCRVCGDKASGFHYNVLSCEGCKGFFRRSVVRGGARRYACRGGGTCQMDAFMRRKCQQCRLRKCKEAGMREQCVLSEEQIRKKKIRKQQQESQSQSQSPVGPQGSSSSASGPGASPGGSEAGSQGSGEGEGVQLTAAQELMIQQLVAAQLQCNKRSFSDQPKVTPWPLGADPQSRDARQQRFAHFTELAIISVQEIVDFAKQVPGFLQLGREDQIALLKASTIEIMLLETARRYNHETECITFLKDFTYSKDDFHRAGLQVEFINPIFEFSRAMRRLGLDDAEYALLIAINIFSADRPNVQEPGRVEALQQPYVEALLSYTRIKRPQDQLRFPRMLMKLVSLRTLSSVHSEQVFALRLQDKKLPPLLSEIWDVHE
# [22] = Luminescence Cell-Based Dose Confirmation to Identify Activators of 5'UTR Stem-Loop Driven Alpha-Synuclein mRNA Translation in H4 Neuroglioblastoma Cells. [Related pubchem assays: 1829 (Project Summary), 1814 (Primary HTS)]; assay type: functional
# [23] = target: FAD-linked sulfhydryl oxidase ALR (Homo sapiens, UniProt P55789); assay: inhibitors of human ALR sulfhydryl oxidase, dose response, biochemical, H2O2 detection, luminescence, cherry-pick (AID 493248)
# Sequence of FAD-linked sulfhydryl oxidase ALR (P55789 whole entry): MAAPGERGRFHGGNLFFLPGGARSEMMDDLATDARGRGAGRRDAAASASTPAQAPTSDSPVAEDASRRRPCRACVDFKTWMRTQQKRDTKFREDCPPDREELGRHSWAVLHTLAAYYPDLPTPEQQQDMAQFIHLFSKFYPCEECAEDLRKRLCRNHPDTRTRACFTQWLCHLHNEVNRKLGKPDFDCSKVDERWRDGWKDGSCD
# [24] = Luminescence Cell-Based Dose Response to Identify Activators of Luciferase Translation or Activity in H4-C Neuroglioblastoma Cells. [Related pubchem assays: 1829 (Project Summary), 1814 (Primary HTS)]; assay type: functional
# H4 = assay: Luminescence Cell-Based Dose Response HTS to Identify Activators of 5'UTR Stem-Loop Driven Prion Protein mRNA Translation in H4 Neuroglioblastoma Cells. [Related pubchem assays: 1829 (Project Summary), 1814 (Primary HTS)]; assay type: functional; details: Homo sapiens
# [25] = Luminescence Cell-Based Dose Response HTS to Identify Activators of Luciferase Translation or Activity in H4 […] Cells. [Related pubchem assays: 1829 (Project Summary), 1814 (Primary HTS)]; assay type: functional
# [26] = Luminescence Cell-Based Dose Response to Identify Activators of 5'UTR Stem-Loop Driven Prion Protein mRNA Translation in H4-C Neuroglioblastoma Cells. [Related pubchem assays: 1829 (Project Summary), 1814 (Primary HTS)]; assay type: functional
# [27] = HeLa cell cytotoxicity, dose response, cytotoxicity control, 24 h, plate reader, dry powder (AID 686928); assay type: functional, cell-based
# [28] = C. albicans growth with fluconazole, confirmation, fluorescence, retest (AID 2467); assay type: functional, cell-based
# [29] = test system: Streptococcus sp. 'group A'; assay: growth inhibition of control SK(-) GAS strain, dose response, counter-screen for streptokinase expression inhibitor project, luminescence, kanamycin, BacTiterGlo, confirmation (AID 1900); assay type: functional, organism-based
# Streptococcus = assay: Group A Streptococcus viability loss, dose response, counter-screen for streptokinase expression inhibitor project, luminescence, BacTiterGlo (AID 1915); assay type: functional, organism-based;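 note: potency for reduction of bacterial viability or growth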
# Estrogen receptor beta = Estrogen receptor beta (Homo sapiens, UniProt Q92731);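 note: recombinant ER-beta bound to coactivator SRC1 peptide in presence of estradiol agonist; inhibitors block coactivator peptide binding and lower the FRET signal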
# Sequence of Estrogen receptor beta (Q92731 whole entry, the tested form may be a part): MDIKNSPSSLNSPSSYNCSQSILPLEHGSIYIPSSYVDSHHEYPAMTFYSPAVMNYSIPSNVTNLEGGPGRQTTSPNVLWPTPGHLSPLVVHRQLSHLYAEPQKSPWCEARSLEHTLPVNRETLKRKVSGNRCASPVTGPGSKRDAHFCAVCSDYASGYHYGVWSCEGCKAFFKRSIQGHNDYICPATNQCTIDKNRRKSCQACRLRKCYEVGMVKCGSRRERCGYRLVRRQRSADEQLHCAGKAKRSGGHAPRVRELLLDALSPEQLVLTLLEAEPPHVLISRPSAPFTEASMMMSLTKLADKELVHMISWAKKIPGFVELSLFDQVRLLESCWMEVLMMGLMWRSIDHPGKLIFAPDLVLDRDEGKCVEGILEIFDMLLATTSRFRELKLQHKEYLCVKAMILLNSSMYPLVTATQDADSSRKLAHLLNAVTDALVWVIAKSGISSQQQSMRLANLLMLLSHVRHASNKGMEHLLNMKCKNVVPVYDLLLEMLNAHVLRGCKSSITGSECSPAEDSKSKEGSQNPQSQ
# [30] = target: Disintegrin and metalloproteinase domain-containing protein 17 (Homo sapiens, UniProt P78536); assay: ADAM17 protease inhibitors, dose response, counter-screen for ADAM10 exosite inhibitor project, biochemical, quenched FRET substrate (AID 743253)
# Sequence of Disintegrin and metalloproteinase domain-containing protein 17 (P78536 whole entry, the tested form may be a part): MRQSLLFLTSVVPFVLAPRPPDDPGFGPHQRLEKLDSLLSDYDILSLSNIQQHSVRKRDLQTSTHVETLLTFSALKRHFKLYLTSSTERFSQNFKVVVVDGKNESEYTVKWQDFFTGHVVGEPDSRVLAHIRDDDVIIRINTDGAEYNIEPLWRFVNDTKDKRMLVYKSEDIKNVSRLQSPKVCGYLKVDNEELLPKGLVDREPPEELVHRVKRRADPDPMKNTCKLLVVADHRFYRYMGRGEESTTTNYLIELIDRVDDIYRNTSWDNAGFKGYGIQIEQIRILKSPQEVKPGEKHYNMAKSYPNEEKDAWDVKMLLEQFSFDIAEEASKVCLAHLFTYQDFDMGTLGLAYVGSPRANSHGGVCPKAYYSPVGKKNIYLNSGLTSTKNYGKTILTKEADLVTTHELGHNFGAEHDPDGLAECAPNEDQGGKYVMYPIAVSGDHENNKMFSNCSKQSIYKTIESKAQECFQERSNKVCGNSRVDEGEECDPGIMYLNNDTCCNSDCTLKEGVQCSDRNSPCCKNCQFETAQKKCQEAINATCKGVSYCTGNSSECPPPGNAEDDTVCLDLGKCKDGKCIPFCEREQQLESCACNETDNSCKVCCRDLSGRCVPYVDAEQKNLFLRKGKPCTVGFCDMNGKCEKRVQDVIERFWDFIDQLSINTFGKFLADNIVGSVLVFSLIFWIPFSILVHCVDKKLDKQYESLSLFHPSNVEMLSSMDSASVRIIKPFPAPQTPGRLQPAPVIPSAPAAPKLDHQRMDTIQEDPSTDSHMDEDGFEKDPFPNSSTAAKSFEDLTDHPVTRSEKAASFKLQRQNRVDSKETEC
# [31] = NIH-3T3 fibroblast cytotoxicity, dose response, cytotoxicity control, cell-based, fluorescence, Alamar Blue, secondary assay (AID 2327); assay type: functional;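 note: NIH-3T3 mouse fibroblasts cultured with fluconazole at 8 µg/mL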
# [32] = ADAM10 inhibitors, peptide cleavage, dose response, biochemical, QFRET (AID 743254);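 note: ADAM10 enzyme with the DM2 quenched FRET peptide as substrate; EDANS fluorescence gain as the protease cuts the substrate; inhibitor potency against ADAM10 proteolytic activity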
# Cryptococcus neoformans = assay: PubChem AID 686997; assay type: functional, organism-based
# [33] = HEK293 Cytotoxicity Assay Measured in Cell-Based System Using Plate Reader - 7071-01_Inhibitor_Dose_CherryPick_Activity_Set2.; assay type: functional
# HeLa = assay: HeLa cell cytotoxicity, dose response, cytotoxicity control, ATP luminescence, cherry-pick samples (AID 687004); assay type: functional, cell-based; details: Homo sapiens
# HEK293 = assay: HEK293T cell cytotoxicity, dose response, cytotoxicity control, ATP luminescence, cherry-pick samples (AID 687005); assay type: functional, cell-based; details: Homo sapiens;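 note: cells exposed to compound for 48 hours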
compound,measurement,setting,value
Cc1ccc(C(=O)NC(=S)NNC(=O)c2ccccc2)cc1,IC50,[1],51.6 µM (inactive)
same,EC50,[2],1.33 µM (active)
CCN(C)C(=O)C1(CCOc2ccccc2)CCN(Cc2ccc(O)c(Cl)c2)CC1,AC50,[3],> 52 µM (inactive)
same,AC50,[4],3 µM (active)
CCc1cc(CNC(=O)c2ccc(OC)c(OCCN3CCCCC3)c2)on1,IC50,[5],5.91 µM (active)
CCCC(=O)C1CCN(c2ncnc3c2CN(C(=O)c2ccc(-c4ccccc4)cc2)CC3)CC1,IC50,[6],140 nM (active)
same,IC50,[7],21 nM (active)
same,IC50,[8],7.68 µM (active)
Fc1cccc(CN2C[C@@H]3N[C@H](C2)[C@H]3c2ccc(/C=C/c3ccccc3)cc2)c1,AC50,[9],13.2 µM (active)
same,AC50,[10],18.8 µM (active)
same,AC50,[11],13.7 µM (active)
COc1cccc(-c2ccc3c(c2)[C@H]2[C@H](CCN2C(=O)c2ccccc2F)[C@H](CO)N3C)c1,AC50,[12],24 µM (active)
same,AC50,[13],5.53 µM (active)
same,AC50,[14],7.07 µM (active)
same,AC50,Paired box protein Pax-8,8.72 µM (active)
same,AC50,[15],20.5 µM (active)
same,AC50,[16],25.3 µM (active)
same,AC50,[17],57.8 µM (active)
same,AC50,[18],22.7 µM (active)
same,AC50,[19],13.8 µM (active)
O=c1nc(Nc2cccc(OCc3ccccc3)c2)sc2ncccc12,IC50,[20],1.64 µM (active)
Cc1nc(N)sc1N=Nc1ccc(Br)cc1,EC50,[21],> 67.5 µM (inactive)
same,EC50,[22],280 nM (active)
same,AC50,[23],753 nM (active)
same,EC50,[24],303 nM (active)
same,EC50,H4,> 120 µM (not active)
same,EC50,[25],< 100 nM (active)
same,EC50,[26],285 nM (active)
O=C(Nc1nnc(-c2ccc3c(c2)OCCO3)o1)C1CCCCCC1,AC50,[27],> 200 µM (inactive)
COc1ccc(C2C3=C(CC(C)(C)CC3=O)N(C)C3=C2C(=O)CC(C)(C)C3)cc1,AC50,cells,2.07 µM (active)
Cc1cc(NC(=O)c2c(F)cccc2Cl)n(-c2nc3ccccc3[nH]2)n1,EC50,[28],> 38 µM (not active)
same,EC50,[29],6.4 µM (active)
same,EC50,Streptococcus,7.12 µM (active)
same,IC50,Estrogen receptor beta,> 50 µM (not active)
same,IC50,[30],> 69.5 µM (inactive)
same,EC50,[31],> 160 µM (inconclusive)
same,IC50,[32],> 7.72 µM (active)
COC(=O)C1=C(C)N(Cc2ccc(Br)cc2)C(=S)NC1c1ccc(OC)cc1 (configuration not stated),AC50,Cryptococcus neoformans,> 60 µM (inactive)
same,AC50,Cryptococcus neoformans; Cryptococcus neoformans,36.4 µM (active)
same,AC50,[33],22.2 µM (active)
same,AC50,HeLa,> 47 µM (inactive)
same,AC50,HEK293,22.2 µM (active)
